Experimental data taken from US8431597B2, “Benzimidazole derivatives” (Pfizer Inc., priority 2007, dated 2013).
Counter-ions that a name gives are not always drawn.

Biological target: T1, Smoothened (SMO) (Mus musculus, UniProt P56726)
T1 construct: C3H10T1/2 cells (ATCC #CCL-226) were split and seeded; endogenous in cells; host or cells: C3H10T1/2 (ATCC #CCL-226)
Assay: Smoothened (SMO)/Sonic Hedgehog (SHh) Transient Transcriptional Activation Assay (Gli-luciferase reporter in C3H10T1/2 cells)
Format: cell-based, murine
Conditions: C3H 10T1/2, 2 μM compound; transfected C3H10T1/2 cells, recombinant human SHh 250 ng/mL, 20 hours, luciferase readout; read-out: SMO CELL % INHIBITION @ 2 μM
Protocol: As noted above, the compounds of the invention are useful as inhibitors of SMO. • Methods for determining the in vitro activity of these compounds are described below: Smoothened (SMO)/Sonic Hedgehog (SHh) Transient Transcriptional Activation Assay
On Day 1, 2×10^6 C3H10T1/2 cells (ATCC #CCL-226) were split and seeded in 12 mL of growth medium Basal Medium Eagle (BME, Invitrogen #21010-046) supplemented with 2 mM L-glutamine (Invitrogen #25030-081), 0.1 units/mL penicillin and 0.1 μg/mL streptomycin (Invitrogen #15140-122), and 10% Fetal Bovine Serum (FBS, Invitrogen #16140-071) in a T-75 flask (Costar #3376). They were allowed to attach for 4 hours at 37° C., 5% CO2. The cells were then transfected using Fugene 6 (Roch #11 814 443 001) in the following reaction: 48 μL Fugene 6 and 745 μL Opti-MEM (Invitrogen #31985-070) were mixed and allowed to sit at room temperature for 5 minutes. 8 μg of pGL4.14/mGli(CS) DNA (10× murine Gli response elements and minimal CS promoter) and 0.5 μg of pEGFP DNA (Clontech) were added, gently mixed and incubated at room temperature for 20 minutes. This entire transfection mix was then added to the T-75 flask containing the cells. The cells were incubated at 37° C., 5% CO2 for 18-24 hours.
On Day 2, the transfected cells were trypsinized and seeded into white 96 well plates (Costar #3917) in 100 μL/well of growth medium at a concentration of 20,000 cells/well. The cells were allowed to recover for 4 hours before adding serum starvation medium Dulbecco's Modified Eagle Medium (DMEM, Invitrogen #21063-029) supplemented with 2 mM L-glutamine, 0.1 units/mL penicillin and 0.1 μg/mL streptomycin, and 0.5% Calf Serum (CS, Invitrogen #26170-043). The growth media was aspirated off, and the cells were rinsed with 100 μL of starvation media. 95 μL of starvation media was then added to each well. The cells were incubated for 20 hours at 37° C., 5% CO2.
On Day 3, cells were dosed with test compounds at a final concentration ranging from 2 μM to 2 nM. Immediately after dosing cells with compounds, recombinant human sonic hedgehog (SHh, R&D Systems #1845-SH) was add to a final concentration of 250 ng/mL. A 25 μg vial of SHh was reconstituted with 250 μL PBS/0.1% BSA to give a 100 ng/μL working stock. This working stock was then diluted 1:20 in starvation media. The transfected cells were incubated with compounds and SHh for 20 hours at 37° C., 5% CO2.
Luciferase assays were conducted on Day 4 using Dual-Glo Luciferase assay system (Promega #E2940) according to Promega's protocol. Briefly, Dual-Glo luciferase reagent was made up and 100 μL were added to each well of the 96 well plate containing media. Plates were shaken at room temperature for 10 minutes, and then read on TopCount (Perkin-Elmer). The luminescence was recorded.

T1 sequence (P56726 33-793): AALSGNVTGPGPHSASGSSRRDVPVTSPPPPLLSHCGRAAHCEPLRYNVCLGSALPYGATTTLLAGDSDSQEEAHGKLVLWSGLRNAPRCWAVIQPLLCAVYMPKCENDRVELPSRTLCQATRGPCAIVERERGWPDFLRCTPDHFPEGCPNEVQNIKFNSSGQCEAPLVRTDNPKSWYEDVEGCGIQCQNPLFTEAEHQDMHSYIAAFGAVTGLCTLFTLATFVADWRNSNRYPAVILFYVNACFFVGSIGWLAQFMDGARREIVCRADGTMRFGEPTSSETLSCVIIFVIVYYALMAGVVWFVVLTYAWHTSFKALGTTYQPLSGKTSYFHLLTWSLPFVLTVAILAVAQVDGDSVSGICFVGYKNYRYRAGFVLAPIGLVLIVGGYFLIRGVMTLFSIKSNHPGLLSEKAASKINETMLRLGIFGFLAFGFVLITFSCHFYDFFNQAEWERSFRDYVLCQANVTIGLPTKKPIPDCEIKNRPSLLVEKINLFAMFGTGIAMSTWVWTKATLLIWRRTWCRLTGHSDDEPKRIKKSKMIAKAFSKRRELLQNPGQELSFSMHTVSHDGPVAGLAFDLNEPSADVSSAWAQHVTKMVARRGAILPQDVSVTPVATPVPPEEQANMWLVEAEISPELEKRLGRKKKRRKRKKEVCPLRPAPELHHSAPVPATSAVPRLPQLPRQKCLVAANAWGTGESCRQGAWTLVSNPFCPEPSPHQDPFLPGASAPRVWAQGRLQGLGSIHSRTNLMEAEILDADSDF

With `CN1CC[C@@H](NC(=O)Nc2ccc(Cl)cc2)C[C@@H]1c1nc2ccccc2[nH]1` [Example 30, 1-[(2R,4R)-2-(1H-benzimidazol-2-yl)-1-methylpiperidin-4-yl]-3-(4-chlorophenyl)urea hydrochloride] the inhibition at 2 µM was 108%.

`CN1CC[C@@H](NC(=O)Nc2ccc(C#N)cc2)C[C@@H]1c1nc2ccccc2[nH]1` [Example 31, 1-[(2R,4R)-2-(1H-benzimidazol-2-yl)-1-methylpiperidin-4-yl]-3-(4-cyanophenyl)urea hydrochloride] was tested, and the inhibition at 2 µM was 107%.

`CN1CC[C@@H](NC(=O)Nc2ccc(F)nc2)C[C@@H]1c1nc2ccccc2[nH]1` [Example 32, 1-[(2R,4R)-2-(1H-benzimidazol-2-yl)-1-methylpiperidin-4-yl]-3-(6-fluoropyridin-3-yl)urea hydrochloride] was tested, and the inhibition at 2 µM was 107%.

For `CN1CC[C@@H](NC(=O)c2ccc3c(c2)CCCO3)C[C@@H]1c1nc2ccccc2[nH]1` [Example 33, N-[(2R,4R)-2-(1H-benzimidazol-2-yl)-1-methylpiperidin-4-yl]chromane-6-carboxamide hydrochloride], the inhibition at 2 µM was 114%.

`CN1CC[C@@H](NC(=O)c2ccc3c(c2)OCCO3)C[C@@H]1c1nc2ccc(Cl)cc2[nH]1` [Example 34, N-[(2R,4R)-2-(6-chloro-1H-benzimidazol-2-yl)-1-methylpiperidin-4-yl]-2,3-dihydro-1,4-benzodioxine-6-carboxamide hydrochloride] showed an inhibition at 2 µM of 107%.

Compound `CN1CC[C@@H](NC(=O)Nc2ccc(C(F)(F)F)nc2)C[C@@H]1c1nc2cc(C(F)(F)F)ccc2[nH]1` [Example 35, 1-{(2R,4R)-1-methyl-2-[5-(trifluoromethyl)-1H-benzimidazol-2-yl]piperidin-4-yl}-3-[6-(trifluoromethyl)pyridin-3-yl]urea hydrochloride] has an inhibition at 2 µM of 107%.

`Cc1ccc2[nH]c([C@H]3C[C@H](NC(=O)Nc4ccc(C#N)cc4)CCN3C)nc2c1` [Example 36, 1-(4-cyanophenyl)-3-[(2R,4R)-1-methyl-2-(5-methyl-1H-benzimidazol-2-yl)piperidin-4-yl]urea hydrochloride] was tested, and the inhibition at 2 µM was 107%.

In the case of `COc1ccc(NC(=O)N[C@@H]2CCN(C)[C@@H](c3nc4ccccc4[nH]3)C2)cc1` [Example 37, 1-[(2R,4R)-2-(1H-benzimidazol-2-yl)-1-methylpiperidin-4-yl]-3-(4-methoxyphenyl)urea hydrochloride], the inhibition at 2 µM is reported as 106%.

With `COc1ccc2nc([C@H]3C[C@H](NC(=O)c4ccc5c(c4)OCCO5)CCN3C)[nH]c2c1` [Example 38, N-[(2R,4R)-2-(6-methoxy-1H-benzimidazol-2-yl)-1-methylpiperidin-4-yl]-2,3-dihydro-1,4-benzodioxine-6-carboxamide hydrochloride] the inhibition at 2 µM was 106%.

With `CC(C)CN1CC[C@@H](NC(=O)Nc2ccc(C#N)cc2)C[C@@H]1c1nc2ccccc2[nH]1` [Example 39, 1-[(2R,4R)-2-(1H-benzimidazol-2-yl)-1-isobutylpiperidin-4-yl]-3-(4-cyanophenyl)urea] the inhibition at 2 µM was 106%.

`Cc1cc(NC(=O)N[C@@H]2CCN(C)[C@@H](c3nc4ccccc4[nH]3)C2)cnc1F` [Example 40, 1-[(2R,4R)-2-(1H-benzimidazol-2-yl)-1-methylpiperidin-4-yl]-3-(6-fluoro-5-methylpyridin-3-yl)urea hydrochloride] showed an inhibition at 2 µM of 106%.

`CN1CC[C@@H](NC(=O)Nc2cc(F)cc3c2OCOC3)C[C@@H]1c1nc2ccccc2[nH]1` [Example 41, 1-[(2R,4R)-2-(1H-benzimidazol-2-yl)-1-methylpiperidin-4-yl]-3-(6-fluoro-4H-1,3-benzodioxin-8-yl)urea hydrochloride] showed an inhibition at 2 µM of 106%.

`CN1CC[C@@H](NC(=O)c2ccc3c(c2)OCCO3)C[C@H]1c1nc2ccccc2[nH]1` [Example 42, N-[(2S,4R)-2-(1H-benzimidazol-2-yl)-1-methylpiperidin-4-yl]-2,3-dihydro-1,4-benzodioxine-6-carboxamide hydrochloride] was tested, and the inhibition at 2 µM was 106%.

For `CN1CC[C@@H](NC(=O)Nc2ccc(C#N)cn2)C[C@@H]1c1nc2ccccc2[nH]1` [Example 43, 1-[(2R,4R)-2-(1H-benzimidazol-2-yl)-1-methylpiperidin-4-yl]-3-(5-cyanopyridin-2-yl)urea hydrochloride], the inhibition at 2 µM was 106%.

For `CCN1CC[C@@H](NC(=O)c2ccc3c(c2)OCCO3)C[C@@H]1c1nc2ccccc2[nH]1` [Example 44, N-[(2R,4R)-2-(1H-benzimidazol-2-yl)-1-ethylpiperidin-4-yl]-2,3-dihydro-1,4-benzodioxine-6-carboxamide hydrochloride], the inhibition at 2 µM was 105%.

In the case of `CN1CC[C@@H](NC(=O)c2ccc3c(c2)OCCO3)C[C@@H]1c1nc2ccc(F)cc2[nH]1` [Example 45, N-[(2R,4R)-2-(6-fluoro-1H-benzimidazol-2-yl)-1-methylpiperidin-4-yl]-2,3-dihydro-1,4-benzodioxine-6-carboxamide hydrochloride], the inhibition at 2 µM is reported as 105%.

In the case of `CCN1CC[C@@H](NC(=O)Nc2ccc(C#N)cc2)C[C@@H]1c1nc2ccccc2[nH]1` [Example 46, 1-[(2R,4R)-2-(1H-benzimidazol-2-yl)-1-ethylpiperidin-4-yl]-3-(4-cyanophenyl)urea], the inhibition at 2 µM is reported as 105%.

Compound `CN1CC[C@@H](NC(=O)c2ccc3c(c2)CCO3)C[C@@H]1c1nc2ccccc2[nH]1` [Example 47, N-[(2R,4R)-2-(1H-benzimidazol-2-yl)-1-methylpiperidin-4-yl]-2,3-dihydro-1-benzofuran-5-carboxamide hydrochloride] has an inhibition at 2 µM of 105%.

For `Cc1ccc(NC(=O)N[C@@H]2CCN(C)[C@@H](c3nc4ccccc4[nH]3)C2)c(C)n1` [Example 48, 1-[(2R,4R)-2-(1H-benzimidazol-2-yl)-1-methylpiperidin-4-yl]-3-(2,6-dimethylpyridin-3-yl)urea hydrochloride], the inhibition at 2 µM was 105%.

`Cc1cc2nc([C@H]3C[C@H](NC(=O)c4ccc5c(c4)OCCO5)CCN3C)[nH]c2cc1C` [Example 49, N-[(2R,4R)-2-(5,6-dimethyl-1H-benzimidazol-2-yl)-1-methylpiperidin-4-yl]-2,3-dihydro-1,4-benzodioxine-6-carboxamide hydrochloride] gave an inhibition at 2 µM of 105%.

Work on `CC(=O)c1c(C)[nH]c(C(=O)N[C@@H]2CCN(C)[C@@H](c3nc4ccccc4[nH]3)C2)c1C` [Example 50, 4-acetyl-N-[(2R,4R)-2-(1H-benzimidazol-2-yl)-1-methylpiperidin-4-yl]-3,5-dimethyl-1H-pyrrole-2-carboxamide hydrochloride] yielded an inhibition at 2 µM of 105%.

Work on `CN1CC[C@@H](NC(=O)Nc2ccc(C#N)cc2)C[C@@H]1c1nc2cc(F)ccc2[nH]1` [Example 51, 1-(4-cyanophenyl)-3-[(2R,4R)-2-(5-fluoro-1H-benzimidazol-2-yl)-1-methylpiperidin-4-yl]urea hydrochloride] yielded an inhibition at 2 µM of 105%.

For `Cc1cc2nc([C@H]3C[C@H](NC(=O)Nc4ccc(C#N)cc4)CCN3C)[nH]c2cc1C` [Example 52, 1-(4-cyanophenyl)-3-[(2R,4R)-2-(5,6-dimethyl-1H-benzimidazol-2-yl)-1-methylpiperidin-4-yl]urea hydrochloride], the inhibition at 2 µM was 105%.

`CC(C)c1ccc(NC(=O)N[C@@H]2CCN(C)[C@@H](c3nc4ccccc4[nH]3)C2)cc1` [Example 53, 1-[(2R.4R)-2-(1H-benzimidazol-2-yl)-1-methylpiperidin-4-yl]-3-(4-isopropylphenyl)urea hydrochloride] gave an inhibition at 2 µM of 105%.

`CN1CC[C@@H](NC(=O)Nc2ccc(C#N)nc2)C[C@@H]1c1nc2ccccc2[nH]1` [Example 54, 1-[(2R,4R)-2-(1H-benzimidazol-2-yl)-1-methylpiperidin-4-yl]-3-(6-cyanopyridin-3-yl)urea hydrochloride] was tested, and the inhibition at 2 µM was 105%.

Work on `CN1CC[C@@H](NC(=O)Nc2ccc(C(F)(F)F)nc2)C[C@@H]1c1nc2cc(C#N)ccc2[nH]1` [Example 55, 1-[(2R,4R)-2-(5-cyano-1H-benzimidazol-2-yl)-1-methylpiperidin-4-yl]-3-[6-(trifluoromethyl)pyridin-3-yl]urea hydrochloride] yielded an inhibition at 2 µM of 105%.
